These results are taken from patent US7611848B2, “Method for selecting allosteric regulators of class III G protein-coupled receptors” (Centre National de la Recherche Scientifique (CNRS), priority 2003, dated 2009).

The subject of assay [1] is deltaGB2s (truncated GABAB2 (GB2) subunit). As to the kind of experiment: IP production in HEK293 cells transiently expressing deltaGB2s receptor and chimeric G protein Gqi9. Format: cell-based. Particulars: deltaGB2s with Gqi9, FIG. 9. The source says:
FIG. 9: Graph representing the dose-effect of CGP7930 on the deltaGB2s receptor, in HEK293 cells transiently expressing this receptor, and also the chimeric G protein Gqi9 that allows coupling of this receptor to the phospholipase C activation pathway. The results correspond to the ratio of the production of IP to the radioactivity remaining in the membranes.
The protocol described in section A.I. above, concerning the mGlu5 receptor, was applied mutatis mutandis to the mGlu1 and mGlu2 receptors and to the GB2 subunit.
For this, GPCRs-III for which positive allosteric modulators have been described were chosen: the mGlu1 receptor (Ro01-6128) (Knoflach et al., 2001), the mGlu2 receptor (LY487379) (Schaffhauser et al., 2003), and the GABAB2 (GB2) subunit of the GABAB receptor (CGP7930) (Urwyler et al., 2001). The receptors truncated with respect to their extracellular and intracellular portions are named, respectively, delta1s, delta2s and deltaGB2s and were expressed transiently in HEK293 cells.
In order to allow the delta2s and deltaGB2s receptors to activate the phospholipase C, and therefore to increase the production of inositol phosphates, these two receptors were coexpressed with the chimeric G protein Gqi9 as described above (Gomeza et al., 1996; Franek et al., 1999).

Assay [2] concerns the target heterodimeric receptor GABAB (GB1 and GB2 subunits) (Homo sapiens, UniProt O75899). To be noted: literature (Urwyler et al., 2001); cited from earlier work.
Assay [3] addresses T1, mGlu5ΔS protein (heptahelical domain of the mGlu5 receptor) (Rattus norvegicus, UniProt P31424).
T1 construct: between residue P568, located 11 residues before the first transmembrane domain, and residue L864; signal peptide of the mGlu5 receptor (N); expressed in transfected cells; host or cells: HEK293
Description: IP production in HEK293 cells transiently expressing truncated mGlu5ΔS protein. The class given is cell-based. The text has this: (§1) The results correspond to the ratio of the production of IP to the radioactivity remaining in the membranes, and are expressed as percentage baseline production of IP.
(§2) The results correspond to the ratio of the production of IP to the radioactivity remaining in the membranes.
(§3) In the context of the invention, the measurement of the level of activity of the GPCR-III-A can be carried out by any conventional method known to those skilled in the art that is suitable for measuring the activity of a GPCR-III. Among these methods, mention may be made, by way of example, of measurement of the level of production of inositol phosphates (IPs; see Experimental Section, below; Berridge, 1983; Brandish et al., 2003), measurement of […] (Milligan, 2003), measurement of intracellular calcium signals using fluorescent markers such as Fluo3 or Fluo4, and measurement of cAMP production, the latter two methods being conventional and well known to those skilled in the art.
The portion of the cDNA of the mGlu5 receptor encoding its heptahelical domain between residue P568, located 11 residues before the first transmembrane domain, and residue L864, located 37 residues after the 7th transmembrane domain, was amplified by PCR (primers SEQ ID No.1 and SEQ ID No.2), including, respectively, the restriction sites of the Mlu-I and Xba-I enzymes at the 5′ and 3′ ends (FIG. 2). The PCR product thus obtained was digested with the Mlu-I and Xba-I enzymes, subcloned into the vector pRK5-NHA (FIG. 2), and digested with the same enzymes. The plasmid pRK5-NHA was obtained from the plasmid pRKG5a-NHA (Ango et al., 1999), by replacing the sequence encoding the mGlu5 receptor, from the end of the HA tag to the XbaI restriction site, with an MluI restriction site.

A further assay deals with T2, wild-type mGlu5 receptor (Rattus norvegicus, UniProt P31424).
T2 construct: expressed in transfected cells; host or cells: HEK293
T2 sequence (P31424 21-1171 isoform P31424-2 limits assumed): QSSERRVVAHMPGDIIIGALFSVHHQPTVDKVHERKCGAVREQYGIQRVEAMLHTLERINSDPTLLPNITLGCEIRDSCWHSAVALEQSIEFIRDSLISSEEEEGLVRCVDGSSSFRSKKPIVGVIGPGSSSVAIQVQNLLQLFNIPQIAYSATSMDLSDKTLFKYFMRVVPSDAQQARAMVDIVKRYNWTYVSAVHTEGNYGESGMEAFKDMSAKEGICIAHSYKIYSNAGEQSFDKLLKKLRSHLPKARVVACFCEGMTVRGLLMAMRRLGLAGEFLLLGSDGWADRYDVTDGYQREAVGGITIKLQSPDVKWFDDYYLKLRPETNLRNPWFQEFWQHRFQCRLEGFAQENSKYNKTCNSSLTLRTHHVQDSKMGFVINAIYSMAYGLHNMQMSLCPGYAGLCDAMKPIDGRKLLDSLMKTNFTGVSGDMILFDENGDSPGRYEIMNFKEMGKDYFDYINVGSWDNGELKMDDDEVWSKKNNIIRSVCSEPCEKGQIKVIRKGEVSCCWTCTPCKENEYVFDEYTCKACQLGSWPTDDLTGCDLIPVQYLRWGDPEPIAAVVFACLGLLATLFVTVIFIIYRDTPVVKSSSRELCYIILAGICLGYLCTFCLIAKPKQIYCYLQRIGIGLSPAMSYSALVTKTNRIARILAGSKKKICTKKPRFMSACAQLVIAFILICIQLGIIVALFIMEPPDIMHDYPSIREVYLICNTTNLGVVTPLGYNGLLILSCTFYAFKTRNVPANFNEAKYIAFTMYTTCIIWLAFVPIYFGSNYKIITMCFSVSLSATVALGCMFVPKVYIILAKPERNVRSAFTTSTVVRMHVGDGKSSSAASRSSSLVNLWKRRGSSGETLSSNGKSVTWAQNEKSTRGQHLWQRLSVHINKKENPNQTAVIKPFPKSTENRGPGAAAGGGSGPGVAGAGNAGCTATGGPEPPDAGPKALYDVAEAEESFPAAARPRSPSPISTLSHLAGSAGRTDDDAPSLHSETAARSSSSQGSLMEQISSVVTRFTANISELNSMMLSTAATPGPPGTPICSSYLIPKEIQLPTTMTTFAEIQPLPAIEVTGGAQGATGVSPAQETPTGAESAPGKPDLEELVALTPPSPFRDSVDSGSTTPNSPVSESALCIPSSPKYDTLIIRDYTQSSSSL
Description: IP production in HEK293 cells transiently expressing wild-type mGlu5 receptor. The class given is cell-based.
Excerpt: as §2, §1, §3
DFB has recently been described as a positive allosteric regulator of the mGlu5 receptor (Williams et al., 2002). In order to test its effect on the mGlu5ΔS protein, DFB was synthesized by F. Acher (UMR University R. Descartes, rue des Saints Peres, Paris 5).
The data correspond to the mean±standard deviation of the mean of (n) experiments.

A further assay addresses mGlu2 receptor (Homo sapiens, UniProt Q14416). Particulars: literature; cited from earlier work.
The target in a further assay is mGlu1 receptor (Rattus norvegicus, UniProt P23385). Particulars: literature; cited from earlier work.
mGlu1 receptor, sequence (P23385 19-1199): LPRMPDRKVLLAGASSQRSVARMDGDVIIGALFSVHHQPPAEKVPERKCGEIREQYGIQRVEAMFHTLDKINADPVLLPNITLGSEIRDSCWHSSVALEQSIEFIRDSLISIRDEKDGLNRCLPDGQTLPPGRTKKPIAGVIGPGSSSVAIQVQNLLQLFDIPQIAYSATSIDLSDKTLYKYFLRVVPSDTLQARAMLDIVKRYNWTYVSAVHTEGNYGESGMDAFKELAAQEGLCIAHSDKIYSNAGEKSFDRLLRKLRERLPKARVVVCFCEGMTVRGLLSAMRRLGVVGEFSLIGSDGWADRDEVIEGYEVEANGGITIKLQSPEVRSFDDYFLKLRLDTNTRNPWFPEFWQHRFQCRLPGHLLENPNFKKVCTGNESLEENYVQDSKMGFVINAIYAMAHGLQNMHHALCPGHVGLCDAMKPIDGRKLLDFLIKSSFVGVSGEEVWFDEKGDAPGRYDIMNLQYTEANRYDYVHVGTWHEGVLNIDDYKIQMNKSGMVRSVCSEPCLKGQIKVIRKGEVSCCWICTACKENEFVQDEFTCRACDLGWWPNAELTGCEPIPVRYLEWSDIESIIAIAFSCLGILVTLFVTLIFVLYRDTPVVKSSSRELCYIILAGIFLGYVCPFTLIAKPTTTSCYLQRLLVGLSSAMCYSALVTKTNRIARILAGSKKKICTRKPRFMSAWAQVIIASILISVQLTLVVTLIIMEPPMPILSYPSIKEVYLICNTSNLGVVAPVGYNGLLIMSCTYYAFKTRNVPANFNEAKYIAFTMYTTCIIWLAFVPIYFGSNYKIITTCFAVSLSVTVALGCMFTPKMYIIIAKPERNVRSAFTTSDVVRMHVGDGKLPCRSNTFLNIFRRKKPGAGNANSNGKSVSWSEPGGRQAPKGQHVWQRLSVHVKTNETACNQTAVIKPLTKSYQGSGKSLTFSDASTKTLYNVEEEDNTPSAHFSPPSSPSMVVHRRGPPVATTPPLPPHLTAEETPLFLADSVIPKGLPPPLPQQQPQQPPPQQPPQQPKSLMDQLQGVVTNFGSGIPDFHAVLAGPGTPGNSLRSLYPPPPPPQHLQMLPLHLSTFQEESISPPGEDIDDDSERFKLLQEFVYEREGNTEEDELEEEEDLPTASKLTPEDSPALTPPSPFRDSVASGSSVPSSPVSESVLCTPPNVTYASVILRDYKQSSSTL

A word on the EC50: it is the concentration giving half of the maximal effect.

T1 sequence (P31424 568-864, stated change not applied): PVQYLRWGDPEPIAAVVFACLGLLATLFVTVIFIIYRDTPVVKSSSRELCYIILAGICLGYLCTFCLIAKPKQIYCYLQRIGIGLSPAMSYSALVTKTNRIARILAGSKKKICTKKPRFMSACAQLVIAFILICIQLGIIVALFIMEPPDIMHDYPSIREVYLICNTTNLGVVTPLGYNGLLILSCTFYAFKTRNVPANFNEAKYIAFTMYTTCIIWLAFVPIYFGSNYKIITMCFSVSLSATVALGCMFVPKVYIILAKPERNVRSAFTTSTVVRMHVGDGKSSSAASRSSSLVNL
mGlu2 receptor, sequence (Q14416 19-872): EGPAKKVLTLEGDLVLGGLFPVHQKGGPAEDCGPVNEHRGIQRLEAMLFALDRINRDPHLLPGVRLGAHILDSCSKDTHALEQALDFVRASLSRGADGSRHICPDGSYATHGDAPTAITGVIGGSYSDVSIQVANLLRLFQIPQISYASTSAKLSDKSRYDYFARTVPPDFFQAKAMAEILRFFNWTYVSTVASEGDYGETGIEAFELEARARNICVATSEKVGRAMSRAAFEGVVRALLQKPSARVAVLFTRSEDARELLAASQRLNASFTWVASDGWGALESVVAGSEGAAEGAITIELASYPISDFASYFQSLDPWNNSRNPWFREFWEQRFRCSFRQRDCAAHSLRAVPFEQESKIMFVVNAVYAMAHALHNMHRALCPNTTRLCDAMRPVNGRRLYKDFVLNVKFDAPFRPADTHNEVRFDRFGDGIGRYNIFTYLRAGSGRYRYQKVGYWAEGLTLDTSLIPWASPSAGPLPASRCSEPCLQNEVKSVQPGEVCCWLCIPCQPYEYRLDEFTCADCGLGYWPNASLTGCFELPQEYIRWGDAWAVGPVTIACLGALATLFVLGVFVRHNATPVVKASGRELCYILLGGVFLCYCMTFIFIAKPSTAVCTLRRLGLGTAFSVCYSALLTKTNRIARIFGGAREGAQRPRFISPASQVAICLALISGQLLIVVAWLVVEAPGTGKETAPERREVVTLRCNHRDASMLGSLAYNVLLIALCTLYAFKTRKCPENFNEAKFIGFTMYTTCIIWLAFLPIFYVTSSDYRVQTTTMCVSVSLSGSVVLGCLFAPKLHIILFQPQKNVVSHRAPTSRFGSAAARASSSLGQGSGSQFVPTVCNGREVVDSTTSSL

Turning to `CC(C)(CO)Cc1cc(C(C)(C)C)c(O)c(C(C)(C)C)c1` [CGP7930, 2,6-Di-tert.-butyl-4-4-(3-hydroxy-2,2-dimethyl-propyl)-phenol], the “stimulation of truncated construct (IP production)” value in assay [1] is on record as “strongly stimulates”. The “agonist activity on heterodimeric GABAB receptor” value in assay [2] is reported as “weak agonist activity”.
`Fc1cccc(/C=N/N=C/c2cccc(F)c2)c1` [DFB]: in assay [3] (cells expressing mGlu5ΔS), the “effect on IP production of compound alone (agonist behaviour)” value is recorded as “stimulated IP production”. Besides, the concentration for a half-maximal effect (EC50) amounted to 8 ± 3 µM in assay [3] (compound alone on mGlu5ΔS, n=3, read-out: EC50 for stimulation of IP production) and 1.81 ± 1.04 µM at wild-type mGlu5 receptor (in the presence of a low concentration of agonist, read-out: EC50 for dose-dependent increase of IP production). The “activation of the wild-type mGlu5 receptor by compound alone” value at wild-type mGlu5 receptor (glutamate kept as low as possible by coexpression of EAAC1 and addition of GPT with pyruvate (2 mM)) was “did not significantly activate”.
For `COc1ccccc1Oc1ccc(N(Cc2cccnc2)S(=O)(=O)CC(F)(F)F)cc1` [LY487379], at mGlu2 receptor, the “agonist effect when applied alone” value is reported as “no agonist effect” and the “potentiation of the effect of agonists” value is listed as “potentiate the effect of agonists”.
Regarding `Cc1cccc(C#Cc2ccccc2)n1` [MPEP, 2-Methyl-6-(phenylethynyl)pyridine], the “inhibition of the effect of DFB” value in assay [3] (mGlu5ΔS cells treated with 300 μM of DFB (FIG. 6B)) is given as “inhibited”; against wild-type mGlu5 receptor (wild-type receptor, data not shown), “inhibited”.
In the case of `CCOC(=O)NC(=O)C(c1ccccc1)c1ccccc1` [Ro01-6128], on mGlu1 receptor, the “agonist effect when applied alone” value is “no agonist effect” and the “potentiation of the effect of agonists” value is “potentiate the effect of agonists”.
glutamate: the “effect of glutamate on IP production” value at wild-type mGlu5 receptor (100 μM glutamate (FIG. 3), wild-type mGlu5) is reported as “stimulated IP production”.
